A short description of this data set: Dynamic moisture sorption (DMS) analysis of crystalline forms. Particulars: for DMS: weight picked up at 90% RH / DMS: increase of weight at about 90% relative humidity: isotherm 25° C.; for Hygroscopicity by DMS (in words): up to 90% RH; for DMS: increase of weight at about 90% relative humidity: physical-property summary tables; for Change of crystal form during DMS analysis (in words): high % RH. In kind it is physicochemical. Here is the method:
Further characterization with respect to hygroscopicity of the crystalline forms can be gauged by, for example, dynamic moisture sorption (DMS). The DMS features reported herein can vary by plus or minus about 5% relative humidity. The DMS features reported herein can also vary by plus or minus about 5% weight change.
Samples are prepared for dynamic moisture-sorption analysis by placing ˜5 mg to ˜20 mg of compound in a tarred sample holder on the VTI balance. The instrument is a dynamic moisture-sorption analyzer, VTI Corporation, SGA-100, equipment #0228. A drying step is run at 40° C. and ˜1% RH for 1 h. The isotherm temperature is 25° C. A % weight change over 10 min (5 weight readings) of dm/dt=0.010 or 2 h, whichever occurs first, is required before continuing to the next step. The water content of the sample equilibrated as described above was determined from 30% RH to 90% RH and then back down to 10% RH.

Structures can show the parent of a compound that is named as a salt.

Take `O=C(COC[C@H]1CC[C@H](COC(=O)N(c2ccccc2)c2ccc(Cl)cc2)CC1)NCCS(=O)(=O)O` [Compound Ia TRIS salt, 2-(2-(((1r,4r)-4-(((4-Chlorophenyl)(phenyl)carbamoyloxy)methyl)cyclohexyl)methoxy)acetamido)ethanesulfonic Acid]: the “DMS: weight picked up at 90% RH” value was “about 1.2 % by weight” and the “Hygroscopicity by DMS (in words)” value was “slightly hygroscopic”.
On to `N=C(N)NCCC[C@H](N)C(=O)O.O.O=C(COC[C@H]1CC[C@H](COC(=O)N(c2ccccc2)c2ccc(Cl)cc2)CC1)NCCS(=O)(=O)O` [Compound Ia L-arginine salt hydrate, L-arginine 2-(2-(((1r,4r)-4-(((4-chlorophenyl)(phenyl)carbamoyloxy)methyl)cyclohexyl)methoxy)acetamido)ethanesulfonate hydrate], for which the “DMS: weight picked up at 90% RH” value is reported as “about 1 % by weight”, the “DMS: increase of weight at about 90% relative humidity” value is “FIG. 31: Increase of about 1% weight at about 90% relative” and the “Hygroscopicity by DMS (in words)” value is given as “slightly hygroscopic”.
As for `O.O=C(COC[C@H]1CC[C@H](COC(=O)N(c2ccccc2)c2ccc(Cl)cc2)CC1)NCCS(=O)(=O)[O-].[K+]` [Compound Ia potassium salt hydrate, potassium 2-(2-(((1r,4r)-4-(((4-chlorophenyl)(phenyl)carbamoyloxy)methyl)cyclohexyl)methoxy)acetamido)ethanesulfonate hydrate], the “DMS: weight picked up at 90% RH” value was 3-4 % by weight and the “Hygroscopicity by DMS (in words)” value is “slightly hygroscopic”.
With `O.O=C(COC[C@H]1CC[C@H](COC(=O)N(c2ccccc2)c2ccc(Cl)cc2)CC1)NCCS(=O)(=O)[O-].O=C(COC[C@H]1CC[C@H](COC(=O)N(c2ccccc2)c2ccc(Cl)cc2)CC1)NCCS(=O)(=O)[O-].[Ca+2]` [Compound Ia calcium salt hydrate I, calcium 2-(2-(((1r,4r)-4-(((4-chlorophenyl)(phenyl)carbamoyloxy)methyl)cyclohexyl)methoxy)acetamido)ethanesulfonate hydrate I], the “DMS: weight picked up at 90% RH” value is reported as “about 7 % by weight”, the “Change of crystal form during DMS analysis (in words)” value is “converting to Compound Ia calcium salt hydrate IV”, the “DMS: increase of weight at about 90% relative humidity” value is “FIG. 17: Increase of 7% weight at about 90% relative humidity” and the “Hygroscopicity by DMS (in words)” value was “hygroscopic”.
Turning to `O.O=C(COC[C@H]1CC[C@H](COC(=O)N(c2ccccc2)c2ccc(Cl)cc2)CC1)NCCS(=O)(=O)[O-].O=C(COC[C@H]1CC[C@H](COC(=O)N(c2ccccc2)c2ccc(Cl)cc2)CC1)NCCS(=O)(=O)[O-].[Mg+2]` [Compound Ia magnesium salt hydrate, magnesium 2-(2-(((1r,4r)-4-(((4-chlorophenyl)(phenyl)carbamoyloxy)methyl)cyclohexyl)methoxy)acetamido)ethanesulfonate hydrate], the “DMS: weight picked up at 90% RH” value is reported as 1.2 % by weight, the “DMS: increase of weight at about 90% relative humidity” value is on record as “FIG. 14: Increase of 1.2% weight at about 90% relative humidity” and the “Hygroscopicity by DMS (in words)” value is given as “slightly hygroscopic”.
On to `O.O=C(COC[C@H]1CC[C@H](COC(=O)N(c2ccccc2)c2ccc(Cl)cc2)CC1)NCCS(=O)(=O)O` [Compound Ia free acid hydrate, 2-(2-(((1r,4r)-4-(((4-chlorophenyl)(phenyl)carbamoyloxy)methyl)cyclohexyl)methoxy)acetamido)ethanesulfonic acid hydrate], for which the “DMS: weight picked up at 90% RH” value is on record as “over 10 % by weight”, the “Change of crystal form during DMS analysis (in words)” value is “form a new hydrate crystal phase at high % RH values”, the “DMS: increase of weight at about 90% relative humidity” value is on record as “FIG. 3: Increase of about 10% weight at about 90% relative” and the “Hygroscopicity by DMS (in words)” value is recorded as “hygroscopic”.

Values taken from patent US20120225937A1, “CRYSTALLINE FORMS AND PROCESSES FOR THE PREPARATION OF PG12 RECEPTOR AGONISTS” (Arena Pharmaceuticals, Inc., priority 2009, published 2012).
